29 compounds from patent US6426331B1, “Inhibitors of STAT function” (Tularik Inc., priority 1998, dated 2002) can be followed below.

The structures appear in SMILES notation.

The target of one test is T1, STAT6 (Homo sapiens, UniProt P42226).
T1 sequence (P42226 1-847): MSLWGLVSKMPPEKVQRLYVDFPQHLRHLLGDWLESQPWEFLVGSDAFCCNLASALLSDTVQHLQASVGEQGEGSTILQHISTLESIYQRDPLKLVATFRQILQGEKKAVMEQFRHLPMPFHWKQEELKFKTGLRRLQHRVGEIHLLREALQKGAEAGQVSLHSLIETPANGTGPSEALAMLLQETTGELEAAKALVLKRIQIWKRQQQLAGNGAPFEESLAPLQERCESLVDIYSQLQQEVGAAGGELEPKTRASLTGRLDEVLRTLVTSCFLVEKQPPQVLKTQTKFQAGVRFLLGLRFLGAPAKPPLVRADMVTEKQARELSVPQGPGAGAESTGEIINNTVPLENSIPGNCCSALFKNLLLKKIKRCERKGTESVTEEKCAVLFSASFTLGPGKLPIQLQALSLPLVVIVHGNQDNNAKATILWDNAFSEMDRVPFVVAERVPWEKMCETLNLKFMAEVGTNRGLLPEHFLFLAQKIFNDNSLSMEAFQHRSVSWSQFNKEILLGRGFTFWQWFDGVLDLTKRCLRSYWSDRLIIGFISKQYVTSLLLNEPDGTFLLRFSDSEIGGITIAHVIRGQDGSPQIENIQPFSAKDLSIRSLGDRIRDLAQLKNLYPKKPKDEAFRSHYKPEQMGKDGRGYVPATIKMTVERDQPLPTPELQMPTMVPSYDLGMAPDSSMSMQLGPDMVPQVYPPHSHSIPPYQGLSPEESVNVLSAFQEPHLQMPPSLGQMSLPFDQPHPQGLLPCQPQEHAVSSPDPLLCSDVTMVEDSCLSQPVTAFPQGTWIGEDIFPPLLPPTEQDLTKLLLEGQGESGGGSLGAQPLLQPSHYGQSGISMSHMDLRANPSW
Briefly: Inhibition of STAT6 binding (duplex formation). The conditions noted are these: Table 1; inhibitors of STAT6 binding (duplex formation). The method, then: The compounds of the present invention can be evaluated for STAT binding activity using methods such as those described in U.S. Pat. No. 6,207,391 (for STAT6 binding). Other assays for STAT binding can be found in, for example, U.S. Pat. Nos. 5,618,693, 5,639,858 and 5,756,700.
Using methods similar to those described in Examples 1 and 2, the compounds provided in Table 1 were prepared and evaluated as inhibitors of STAT6 binding (duplex formation). The assay is described in U.S. Pat. No. 6,207,391, filed Mar. 31, 1998. In each of the tables below: a + symbol indicates and IC50 of >100 μM; a ++ symbol indicates and IC50 of 50-100 μM; a +++ symbol indicates and IC50 of 1-50 μM; and a ++++ symbol indicates and IC50 of <1.0 μM.
For orientation: IC50 means the concentration that gives 50% inhibition. Higher therefore signals weaker potency. Compound `CC(C)(C)[C@H](NC(=O)/C=C/c1ccc(C(O)C(=O)O)cc1)C(=O)N1C[C@H](NS(C)(=O)=O)C[C@H]1C(=O)N(Cc1ccccc1)c1ccc(C(N)=O)cc1` (some centres unmarked) [drawing 46: H, —NHSO2CH3,4-CONH2, H] had an IC50 of 1000 to 50000 nM. In turn, `CC(C)(C)[C@H](NC(=O)/C=C/c1ccc(C(O)C(=O)O)cc1)C(=O)N1C[C@H](N(Cc2ccccc2)Cc2ccccc2)C[C@H]1C(=O)N(Cc1ccccc1)c1ccc(C(N)=O)cc1` (some centres unmarked) [drawing 46: H, —N(Bn)2,4-CONH2, H] displayed an IC50 of more than 100000 nM. Same read-out and setting: the value for `CC(=O)N[C@H]1C[C@@H](C(=O)N(Cc2ccccc2)c2ccc(C(N)=O)cc2)N(C(=O)[C@@H](NC(=O)/C=C/c2ccc(C(O)C(=O)O)cc2)C(C)(C)C)C1` (some centres unmarked) [drawing 46: —NHAC, H, 4-CONH2, H] was 1000 to 50000 nM; that for `CC(C)(C)[C@H](NC(=O)/C=C/c1ccc(C(O)C(=O)O)cc1)C(=O)N1CCC[C@H]1C(=O)N(Cc1ccccc1)c1ccc(C(=O)Nc2ccccc2)cc1` (some centres unmarked) [drawing 46: H, H, 4-CONHPh, H] was more than 100000 nM; that for `CC(C)(C)[C@H](NC(=O)/C=C/c1ccc(C(O)C(=O)O)cc1)C(=O)N1CCC[C@H]1C(=O)N(Cc1ccc(CN)cc1)c1ccc(C(N)=O)cc1` (some centres unmarked) [drawing 46: H, H, 4-CONH2,4-CH2NH2] was 1000 to 50000 nM. As for `CC(C)(C)[C@H](NC(=O)/C=C/c1ccc(C(O)C(=O)O)cc1)C(=O)N1C[C@H](NC(=O)OCc2ccccc2)C[C@H]1C(=O)N(Cc1ccccc1)c1ccc(C(N)=O)cc1` (some centres unmarked) [drawing 46: H, —NHCO2Bn, 4-CONH2, H], the IC50 lay within 1000 to 50000 nM.

The test is the same for the next values; noted with them: Table 2; STAT6 binding.
Compound `CC(C)(C)[C@H](NC(=O)/C=C/c1ccc(CP(=O)(O)O)cc1)C(=O)N1CCC[C@H]1C(=O)N(c1ccccc1)c1ccc(C(N)=O)cc1` came in with an IC50 of 1000 to 50000 nM. As to `CC(C)(C)[C@H](NC(=O)/C=C/c1ccc(OC(F)(C(=O)O)C(=O)O)cc1)C(=O)N1CCC[C@H]1C(=O)N(c1ccccc1)c1ccc(C(N)=O)cc1`, the IC50 was 1000 to 50000 nM. Still for that read-out and setting: for `CC(C)(C)[C@H](NC(=O)/C=C/c1ccc(P(=O)(O)O)c(O)c1)C(=O)N1CCC[C@H]1C(=O)N(c1ccccc1)c1ccc(C(N)=O)cc1` the value was 1000 to 50000 nM; for `CC(C)(C)[C@H](NC(=O)/C=C/c1cccc(CP(=O)(O)O)c1)C(=O)N1CCC[C@H]1C(=O)N(c1ccccc1)c1ccc(C(N)=O)cc1`, more than 100000 nM; for `CC(C)(C)[C@H](NC(=O)/C=C/c1ccc(C(F)(F)P(=O)(O)O)cc1)C(=O)N1CCC[C@H]1C(=O)N(c1ccccc1)c1ccc(C(N)=O)cc1`, less than 1000 nM. With `CC(C)(C)[C@H](NC(=O)/C=C/c1cccc(C(=O)O)n1)C(=O)N1CCC[C@H]1C(=O)N(c1ccccc1)c1ccc(C(N)=O)cc1`, the IC50 was more than 100000 nM. Turning to `CC(C)(C)[C@H](NC(=O)/C=C/c1cccc(C(=O)O)c1)C(=O)N1CCC[C@H]1C(=O)N(c1ccccc1)c1ccc(C(N)=O)cc1`, the IC50 was more than 100000 nM.

`CC(C)(C)[C@H](NC(=O)/C=C/c1ccc(C(O)P(=O)(O)O)cc1)C(=O)N1CCC[C@H]1C(=O)N(c1ccccc1)c1ccc(C(N)=O)cc1` (some centres unmarked) came in with an IC50 of 1000 to 50000 nM. Consider `CC(C)(C)[C@H](NC(=O)/C=C/c1cccc(CC(=O)O)c1)C(=O)N1CCC[C@H]1C(=O)N(c1ccccc1)c1ccc(C(N)=O)cc1`, for which the IC50 is more than 100000 nM. For `CC(C)(C)[C@H](NC(=O)/C=C/c1ccc(P(=O)(O)O)cc1)C(=O)N1CCC[C@H]1C(=O)N(c1ccccc1)c1ccc(C(N)=O)cc1`, the concentration for half-maximal inhibition (IC50) was in the range of 1000 to 50000 nM. Compound `CC(C)(C)[C@H](NC(=O)/C=C/c1ccc(C(=O)O)c(C(=O)O)c1)C(=O)N1CCC[C@H]1C(=O)N(c1ccccc1)c1ccc(C(N)=O)cc1` yielded an IC50 of 1000 to 50000 nM.

Still in this test, the particulars now being: Table 3; STAT6 binding.
With `CC(C)(C)C(NC(=O)C=Cc1ccc(OP(=O)(O)O)cc1)C(=O)N1CCCC1C(=O)N(c1ccccc1)c1ccc(Cl)cc1` (centres unmarked) [drawing 69: Cl], the 50% inhibitory concentration (IC50) was less than 1000 nM. In turn, `CC(C)(C)C(NC(=O)C=Cc1ccc(OP(=O)(O)O)cc1)C(=O)N1CCCC1C(=O)N(c1ccccc1)c1ccc(C(=O)O)cc1` (centres unmarked) [drawing 69: CO2H] registered an IC50 of 1000 to 50000 nM. Same read-out and setting: for `CC(C)(C)C(NC(=O)C=Cc1ccc(OP(=O)(O)O)cc1)C(=O)N1CCCC1C(=O)N(c1ccccc1)c1ccc(C(N)=O)cc1` (centres unmarked) [drawing 69: CONH2] the value was less than 1000 nM; for `COC(=O)c1ccc(N(C(=O)C2CCCN2C(=O)C(NC(=O)C=Cc2ccc(OP(=O)(O)O)cc2)C(C)(C)C)c2ccccc2)cc1` (centres unmarked) [drawing 69: CO2CH3], less than 1000 nM; for `CC(C)(C)C(NC(=O)C=Cc1ccc(OP(=O)(O)O)cc1)C(=O)N1CCCC1C(=O)N(c1ccccc1)c1ccccc1` (centres unmarked) [drawing 69: H], less than 1000 nM.

Still in this test, the particulars now being: Table 4; STAT6 binding.
Regarding `CC(C)(C)C(NC(=O)C=Cc1ccc(OP(=O)(O)O)cc1)C(=O)N1CCCC1C(=O)N(Cc1ccc(-c2ccccc2)cc1)c1ccccc1` (centres unmarked) [drawing 70: H, 4-phenyl], the IC50 fell in the range of 1000 to 50000 nM. The compound `CC(=O)NCc1cccc(N(Cc2ccc(C(N)=O)cc2)C(=O)C2CCCN2C(=O)C(NC(=O)C=Cc2ccc(OP(=O)(O)O)cc2)C(C)(C)C)c1` (centres unmarked) [drawing 70: 3-CH2NHAc, 4-CONH2] had an IC50 of less than 1000 nM. On the same count and under the same terms, for `CC(=O)NCc1ccc(CN(C(=O)C2CCCN2C(=O)C(NC(=O)C=Cc2ccc(OP(=O)(O)O)cc2)C(C)(C)C)c2cccc(C(N)=O)c2)cc1` (centres unmarked) [drawing 70: 3-CONH2,4-CH2NHAc] the value was less than 1000 nM.

In the case of `CC(=O)NCc1ccc(CN(C(=O)C2CCCN2C(=O)C(NC(=O)C=Cc2ccc(OP(=O)(O)O)cc2)C(C)(C)C)c2ccc(C(N)=O)cc2)cc1` (centres unmarked) [drawing 70: 4-CONH2,4-CH2NHAc], the IC50 was less than 1000 nM. With `CC(C)(C)c1ccc(CN(C(=O)C2CCCN2C(=O)C(NC(=O)C=Cc2ccc(OP(=O)(O)O)cc2)C(C)(C)C)c2ccccc2)cc1` (centres unmarked) [drawing 70: H, 4-t-butyl], the IC50 lay in the range of 1000 to 50000 nM.

The same test, now with this note: Table 5; STAT6 binding.
`CC(C)(C)C(NC(=O)C=Cc1ccc(OP(=O)(O)O)cc1)C(=O)N1CCCC1C(=O)N(Cc1ccc(C#N)cc1)Cc1ccc(C(N)=O)cc1` (centres unmarked) [drawing 71: 4-CONH2,4-CN] showed an IC50 of less than 1000 nM. `CC(=O)NCc1cccc(CN(Cc2ccc(C(N)=O)cc2)C(=O)C2CCCN2C(=O)C(NC(=O)C=Cc2ccc(OP(=O)(O)O)cc2)C(C)(C)C)c1` (centres unmarked) [drawing 71: 4-CONH2,3-CH2NHAc] showed an IC50 of less than 1000 nM.
